Counter-ions that a name gives are not always drawn.

For assay [1], the system named is histone H4 Y88-phosphorylation. Nature of the assay: Immunoblot of H4 Y88-phosphorylation in ligand-treated PC cells. It counts as cell-based. Particulars: serum and androgen starved PC cells, ligand activated; 5 μM (DHT 10 nM). On the procedure:
FIG. 2A through 2C. ACK1 inhibitor (R)-9bMS suppresses epigenetic modification of histone H4 at tyrosine 88.
To assess endogenous H4-phosphorylation, serum and androgen starved PC cells were treated with ligands to activate ACK1. It led to robust H4 Y88-phosphorylation, suppressed upon (R)-9bMS treatment (FIG. 2A). […] Moreover, H4 Y88-phosphorylation was also detected in human CRPCs using mass spectrometry, which was validated by immunoblotting (FIG. 3A-3C).

Assay [2] relates to LNCaP cells expressing constitutively activated ACK1. The following applies: mouse xenograft model; cited from earlier work.
Assay [3] addresses T1, ACK1 (Homo sapiens (Human), UniProt Q07912). Nature of the assay: ACK1 ELISA. Particulars: read-out: ACK1 ELISA % inhibition at 10 μM. It counts as biochemical. In general terms: ELISA stands for enzyme-linked immunosorbent assay.
Assay [4] concerns the target T1, ACK1. Briefly: ACK1 IC50 (RB). The assay is classed as biochemical.
The target of assay [5] is JAK2 (Homo sapiens (Human), UniProt O60674). Nature of the assay: JAK2 IC50 (RB). The assay is classed as biochemical.
Assay [6] concerns the target c-Src (Homo sapiens (Human), UniProt P12931). Nature of the assay: c-Src IC50 (RB). It counts as biochemical.
The target of assay [7] is ALK (Homo sapiens (Human), UniProt Q9UM73). Briefly: ALK IC50 (RB). It counts as biochemical.
The test system of assay [8] is non-small cell lung cancer (NSCLC) cell lines. Particulars: panel of NSCLC cell lines; cited from earlier work.

JAK2, sequence (O60674 whole entry, species assumed): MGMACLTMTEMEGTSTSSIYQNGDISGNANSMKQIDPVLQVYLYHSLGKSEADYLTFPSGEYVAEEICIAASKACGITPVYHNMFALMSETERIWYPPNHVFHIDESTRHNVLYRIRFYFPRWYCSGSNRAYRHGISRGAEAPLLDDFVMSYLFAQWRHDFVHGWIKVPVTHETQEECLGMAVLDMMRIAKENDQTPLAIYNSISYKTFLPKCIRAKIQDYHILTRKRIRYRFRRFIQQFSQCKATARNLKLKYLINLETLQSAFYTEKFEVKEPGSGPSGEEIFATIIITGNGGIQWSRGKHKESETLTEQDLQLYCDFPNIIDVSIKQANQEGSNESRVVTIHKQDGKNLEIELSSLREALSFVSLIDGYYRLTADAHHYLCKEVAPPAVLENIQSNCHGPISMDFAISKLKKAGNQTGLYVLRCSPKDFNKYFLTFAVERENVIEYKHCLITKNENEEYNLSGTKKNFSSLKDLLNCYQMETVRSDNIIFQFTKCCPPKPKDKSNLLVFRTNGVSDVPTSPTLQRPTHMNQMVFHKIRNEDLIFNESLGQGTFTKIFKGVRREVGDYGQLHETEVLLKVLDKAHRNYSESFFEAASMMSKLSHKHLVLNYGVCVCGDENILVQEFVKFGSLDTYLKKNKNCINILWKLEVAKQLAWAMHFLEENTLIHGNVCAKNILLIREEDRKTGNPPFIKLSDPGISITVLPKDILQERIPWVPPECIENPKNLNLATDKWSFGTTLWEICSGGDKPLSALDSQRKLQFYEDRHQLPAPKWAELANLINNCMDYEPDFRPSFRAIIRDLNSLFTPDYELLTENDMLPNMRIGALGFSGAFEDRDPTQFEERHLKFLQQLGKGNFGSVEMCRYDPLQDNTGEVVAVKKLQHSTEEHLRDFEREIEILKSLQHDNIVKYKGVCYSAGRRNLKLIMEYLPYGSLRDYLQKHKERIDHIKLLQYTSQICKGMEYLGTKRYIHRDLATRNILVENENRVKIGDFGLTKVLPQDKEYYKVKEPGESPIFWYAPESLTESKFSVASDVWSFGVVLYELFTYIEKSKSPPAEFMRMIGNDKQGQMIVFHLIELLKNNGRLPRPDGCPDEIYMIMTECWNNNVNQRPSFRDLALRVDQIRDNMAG
c-Src, sequence (P12931 whole entry, looked up, species assumed): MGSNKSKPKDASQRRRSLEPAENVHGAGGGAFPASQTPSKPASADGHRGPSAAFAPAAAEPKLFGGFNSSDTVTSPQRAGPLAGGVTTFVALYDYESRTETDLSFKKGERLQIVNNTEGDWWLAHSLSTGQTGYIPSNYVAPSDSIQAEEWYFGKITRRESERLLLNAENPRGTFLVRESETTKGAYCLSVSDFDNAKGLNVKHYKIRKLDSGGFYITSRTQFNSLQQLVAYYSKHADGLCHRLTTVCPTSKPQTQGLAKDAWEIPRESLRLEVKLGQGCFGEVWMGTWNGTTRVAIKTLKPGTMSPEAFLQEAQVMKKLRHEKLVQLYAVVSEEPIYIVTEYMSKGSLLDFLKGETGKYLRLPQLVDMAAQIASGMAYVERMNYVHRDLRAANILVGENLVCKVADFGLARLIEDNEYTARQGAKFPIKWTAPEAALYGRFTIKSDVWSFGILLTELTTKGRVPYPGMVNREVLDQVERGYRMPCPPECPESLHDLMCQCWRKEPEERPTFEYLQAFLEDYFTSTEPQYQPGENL
ALK, sequence (Q9UM73 19-1620, species assumed): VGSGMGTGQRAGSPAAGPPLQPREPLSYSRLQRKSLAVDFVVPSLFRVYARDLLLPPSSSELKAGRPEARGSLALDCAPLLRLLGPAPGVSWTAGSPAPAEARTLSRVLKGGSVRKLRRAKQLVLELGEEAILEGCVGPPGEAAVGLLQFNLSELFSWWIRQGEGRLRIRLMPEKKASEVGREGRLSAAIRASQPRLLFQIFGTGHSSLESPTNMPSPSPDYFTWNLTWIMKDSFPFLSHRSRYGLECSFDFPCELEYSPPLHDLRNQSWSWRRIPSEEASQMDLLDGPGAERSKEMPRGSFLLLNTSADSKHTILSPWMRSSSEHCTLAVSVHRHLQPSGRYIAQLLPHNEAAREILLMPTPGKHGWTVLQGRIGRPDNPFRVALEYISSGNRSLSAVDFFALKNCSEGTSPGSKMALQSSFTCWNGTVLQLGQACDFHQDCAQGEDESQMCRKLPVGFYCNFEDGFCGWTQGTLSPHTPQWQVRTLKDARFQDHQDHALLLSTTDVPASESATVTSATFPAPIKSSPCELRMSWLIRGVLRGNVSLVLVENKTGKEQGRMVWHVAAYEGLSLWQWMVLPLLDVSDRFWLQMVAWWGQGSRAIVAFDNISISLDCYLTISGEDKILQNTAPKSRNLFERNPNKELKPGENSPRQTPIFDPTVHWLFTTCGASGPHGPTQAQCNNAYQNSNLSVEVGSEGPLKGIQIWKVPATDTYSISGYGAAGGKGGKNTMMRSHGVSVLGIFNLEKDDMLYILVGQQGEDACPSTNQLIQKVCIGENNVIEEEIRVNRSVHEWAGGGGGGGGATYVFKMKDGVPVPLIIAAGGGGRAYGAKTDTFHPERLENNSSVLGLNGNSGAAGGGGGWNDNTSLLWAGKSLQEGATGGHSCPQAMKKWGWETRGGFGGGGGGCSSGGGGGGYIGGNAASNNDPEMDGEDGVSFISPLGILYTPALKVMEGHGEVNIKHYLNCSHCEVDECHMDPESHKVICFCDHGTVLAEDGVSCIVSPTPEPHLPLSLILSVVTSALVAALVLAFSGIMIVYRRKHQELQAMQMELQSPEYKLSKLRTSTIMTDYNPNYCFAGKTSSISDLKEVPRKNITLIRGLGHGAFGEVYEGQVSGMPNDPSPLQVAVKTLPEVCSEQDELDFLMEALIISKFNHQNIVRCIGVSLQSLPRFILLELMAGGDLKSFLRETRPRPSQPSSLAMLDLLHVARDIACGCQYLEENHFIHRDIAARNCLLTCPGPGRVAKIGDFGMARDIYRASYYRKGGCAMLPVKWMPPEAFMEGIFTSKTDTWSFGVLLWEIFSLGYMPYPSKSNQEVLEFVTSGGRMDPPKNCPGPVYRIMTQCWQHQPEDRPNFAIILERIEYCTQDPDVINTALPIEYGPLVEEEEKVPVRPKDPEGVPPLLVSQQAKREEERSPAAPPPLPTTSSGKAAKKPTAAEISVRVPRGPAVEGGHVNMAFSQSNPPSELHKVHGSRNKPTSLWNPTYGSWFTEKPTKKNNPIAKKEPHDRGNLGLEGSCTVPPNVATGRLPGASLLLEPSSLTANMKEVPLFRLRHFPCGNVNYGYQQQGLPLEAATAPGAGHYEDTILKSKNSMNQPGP
T1 sequence (Q07912 whole entry): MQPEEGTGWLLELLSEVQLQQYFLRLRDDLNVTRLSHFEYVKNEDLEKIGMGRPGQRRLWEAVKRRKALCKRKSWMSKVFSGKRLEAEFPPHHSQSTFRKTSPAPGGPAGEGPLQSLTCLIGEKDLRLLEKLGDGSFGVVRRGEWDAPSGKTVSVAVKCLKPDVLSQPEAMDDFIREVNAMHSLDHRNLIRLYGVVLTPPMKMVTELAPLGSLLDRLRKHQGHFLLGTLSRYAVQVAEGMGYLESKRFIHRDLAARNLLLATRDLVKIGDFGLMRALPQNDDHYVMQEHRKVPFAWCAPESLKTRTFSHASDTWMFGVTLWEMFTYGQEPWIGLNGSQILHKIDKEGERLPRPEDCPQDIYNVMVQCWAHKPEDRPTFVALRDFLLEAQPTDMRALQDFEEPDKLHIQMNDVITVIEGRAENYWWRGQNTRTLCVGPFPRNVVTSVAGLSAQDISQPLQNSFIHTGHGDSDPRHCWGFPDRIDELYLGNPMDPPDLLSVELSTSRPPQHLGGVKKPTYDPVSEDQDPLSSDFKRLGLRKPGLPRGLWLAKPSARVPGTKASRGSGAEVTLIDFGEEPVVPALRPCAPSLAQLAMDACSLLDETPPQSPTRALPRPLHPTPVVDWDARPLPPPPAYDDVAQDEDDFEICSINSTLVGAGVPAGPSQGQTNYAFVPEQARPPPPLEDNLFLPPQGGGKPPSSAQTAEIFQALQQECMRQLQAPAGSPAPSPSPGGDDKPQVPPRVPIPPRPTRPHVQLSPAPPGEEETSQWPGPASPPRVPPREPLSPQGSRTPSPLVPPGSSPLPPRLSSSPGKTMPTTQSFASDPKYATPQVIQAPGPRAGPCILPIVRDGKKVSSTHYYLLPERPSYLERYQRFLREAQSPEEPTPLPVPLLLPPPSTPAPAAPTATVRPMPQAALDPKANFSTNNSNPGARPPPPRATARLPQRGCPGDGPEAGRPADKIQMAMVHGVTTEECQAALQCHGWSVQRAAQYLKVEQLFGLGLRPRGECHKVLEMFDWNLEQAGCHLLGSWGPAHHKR

Turning to `C[C@]12CCC(=O)C[C@@H]1CC[C@@H]1[C@@H]2CC[C@]2(C)[C@@H](O)CC[C@@H]12` [DHT], in assay [1], the “H4 Y88-phosphorylation” value is listed as “remained unaffected”.

Turning to `Cc1nc(Nc2ncc(C(=O)Nc3c(C)cccc3Cl)s2)cc(N2CCN(CCO)CC2)n1` [Dasatinib], in assay [2], the “Growth of LNCaP cells expressing constitutively activated ACK1, xenograft” value is recorded as “significantly reduced”.

As a reminder, the inhibition is how much of the control response was suppressed. With `CN1CCN(c2ccc(Nc3ncc(Cl)c(NCc4ccco4)n3)cc2)CC1` [Example 1, 5-Chloro-N4-(furan-2-ylmethyl)-N2-(4-(4-methylpiperazin-1-yl)phenyl)pyrimidine-2,4-diamine], in assay [3], the inhibition at 10 µM was 96%.

For `CN1CCN(c2ccc(Nc3ncc(Cl)c(NCC4CCCN4)n3)cc2)CC1` (centres unmarked) [Example 2, 5-Chloro-N2-(4-(4-methylpiperazin-1-yl)phenyl)-N4-(pyrrolidin-2-ylmethyl)pyrimidine-2,4-diamine tri-TFA salt], the inhibition at 10 µM in assay [3] came to 18.3%.

As for `Cc1ccc(CNc2nc(Nc3ccc(N4CCN(C)CC4)cc3)ncc2Cl)o1` [Example 3, 5-Chloro-N4-((5-methylfuran-2-yl)methyl)-N2-(4-(4-methylpiperazin-1-yl)phenyl)-pyrimidine-2,4-diamine], in assay [3], the inhibition at 10 µM was 90.9%.

As for `CN1CCN(c2ccc(Nc3ncc(Cl)c(NCC4CCCCO4)n3)cc2)CC1` (centres unmarked) [Example 4, 5-Chloro-N2-(4-(4-methylpiperazin-1-yl)phenyl)-N4-((tetrahydro-2H-pyran-2-yl)methyl)pyrimidine-2,4-diamine hydrochloride], the inhibition at 10 µM in assay [3] came out at 97%.

As to `CN1CCN(c2ccc(Nc3ncc(Cl)c(NCC4CCCC4)n3)cc2)CC1` [Example 5, 5-Chloro-N4-(cyclopentylmethyl)-N2-(4-(4-methylpiperazin-1-yl)phenyl)pyrimidine-2,4-diamine], in assay [3], the inhibition at 10 µM came to 97%.

With `CN1CCN(c2ccc(Nc3ncc(Cl)c(NCC4CCCN4C)n3)cc2)CC1` (centres unmarked) [Example 6, 5-Chloro-N2-(4-(4-methylpiperazin-1-yl)phenyl)-N4-((1-methylpyrrolidin-2-yl)methyl)pyrimidine-2,4-diamine tri TFA salt], the inhibition at 10 µM in assay [3] was found to be 35.6%.

On to `CN1CCN(c2ccc(Nc3ncc(Cl)c(NCCc4ccccc4)n3)cc2)CC1` [Example 7, 5-chloro-N2-(4-(4-methylpiperazin-1-yl)phenyl)-N4-phenethylpyrimidine-2,4-diamine], for which the inhibition at 10 µM in assay [3] came to 91.9%.

Regarding `CN1CCN(c2ccc(Nc3ncc(Cl)c(NCCCc4ccccc4)n3)cc2)CC1` [Example 8, 5-Chloro-N2-(4-(4-methylpiperazin-1-yl)phenyl)-N4-(3-phenylpropyl)pyrimidine-2,4-diamine], in assay [3], the inhibition at 10 µM was determined as 85.8%.

`CN1CCN(c2ccc(Nc3ncc(Cl)c(NCCc4ccc(Cl)cc4Cl)n3)cc2)CC1` [Example 9, 5-Chloro-N4-(2,4-dichlorophenethyl)-N2-(4-(4-methylpiperazin-1-yl)phenyl)pyrimidine-2,4-diamine]: the inhibition at 10 µM in assay [3] was determined as 36.5%.

Consider `CN1CCN(c2ccc(Nc3ncc(Cl)c(NCCc4c(Cl)cccc4Cl)n3)cc2)CC1` [Example 10, 5-Chloro-N4-(2,6-dichlorophenethyl)-N2-(4-(4-methylpiperazin-1-yl)phenyl)pyrimidine-2,4-diamine], for which the inhibition at 10 µM in assay [3] came out at 97%.

`CN1CCN(c2ccc(Nc3ncc(Cl)c(NCCc4ccccc4Cl)n3)cc2)CC1` [Example 11, 5-Chloro-N4-(2-chlorophenethyl)-N2-(4-(4-methylpiperazin-1-yl)phenyl)pyrimidine-2,4-diamine]: the inhibition at 10 µM in assay [3] worked out at 91%.

Turning to `CN1CCN(c2ccc(Nc3ncc(Cl)c(NCCc4c(F)cccc4Cl)n3)cc2)CC1` [Example 12, 5-Chloro-N4-(2-chloro-6-fluorophenethyl)-N2-(4-(4-methylpiperazin-1-yl)phenyl)pyrimidine-2,4-diamine], in assay [3], the inhibition at 10 µM is 93%.

In the case of `CN1CCN(c2ccc(Nc3ncc(Cl)c(NCCc4ccccc4F)n3)cc2)CC1` [Example 13, 5-Chloro-N4-(2-fluorophenethyl)-N2-(4-(4-methylpiperazin-1-yl)phenyl)pyrimidine-2,4-diamine], the inhibition at 10 µM in assay [3] was 91%.

Regarding `COc1ccccc1CCNc1nc(Nc2ccc(N3CCN(C)CC3)cc2)ncc1Cl` [Example 14, 5-Chloro-N4-(2-methoxyphenethyl)-N2-(4-(4-methylpiperazin-1-yl)phenyl)pyrimidine-2,4-diamine], the inhibition at 10 µM in assay [3] is 98%.

As to `CN1CCN(c2ccc(Nc3ncc(Cl)c(NCCc4ccccn4)n3)cc2)CC1` [Example 15, 5-Chloro-N2-(4-(4-methylpiperazin-1-yl)phenyl)-N4-(2-(pyridin-2-yl)ethyl)pyrimidine-2,4-diamine], the inhibition at 10 µM in assay [3] is 91.9%.

With `Cc1ccccc1CCNc1nc(Nc2ccc(N3CCN(C)CC3)cc2)ncc1Cl` [Example 16, 5-Chloro-N4-(2-methylphenethyl)-N2-(4-(4-methylpiperazin-1-yl)phenyl)pyrimidine-2,4-diamine], the inhibition at 10 µM in assay [3] came out at 91%.

The term IC50 denotes the midpoint of a concentration-inhibition curve. A high value points to lower potency. With `COc1cc(N2CCN(C)CC2)ccc1Nc1ncc(Cl)c(NCCc2c(F)cccc2Cl)n1` [Example 20, 5-Chloro-N^4-(2-chloro-6-fluorophenethyl)-N^2-[2-methoxy-4-(4-methylpiperazin-1-yl)phenyl]pyrimidine-2,4-diamine], the IC50 stood at 27 nM in assay [4], 1720 nM in assay [5], 11.5 µM in assay [6] and 7 nM in assay [7].

Regarding `COc1ccccc1CCNc1nc(Nc2ccc(N3CCN(C)CC3)cc2OC)ncc1Cl` [Example 21, 5-Chloro-N^2-[2-methoxy-4-(4-methylpiperazin-1-yl)phenyl]-N^4-(2-methoxyphenethyl)pyrimidine-2,4-diamine], the IC50 came to 24 nM in assay [4], 860 nM in assay [5], 8.25 µM in assay [6] and 2 nM in assay [7].

As for `CN1CCN(C(=O)Cc2ccc(Nc3ncc(Cl)c(NC[C@H]4CCCO4)n3)cc2)CC1` [Example 24, (R)-2-(4-((5-chloro-4-(((tetrahydrofuran-2-yl)methyl)amino)pyrimidin-2-yl)amino)phenyl)-1-(4-methylpiperazin-1-yl)ethan-1-one], in assay [3], the inhibition at 10 µM was 86.8%.

As to `CN1CCC(NC(=O)c2ccc(Nc3ncc(Cl)c(NC[C@H]4CCCO4)n3)cc2F)CC1` [Example 25, (R)-4-((5-chloro-4-(((tetrahydrofuran-2-yl)methyl)amino)pyrimidin-2-yl)amino)-2-fluoro-N-(1-methylpiperidin-4-yl)benzamide], in assay [3], the inhibition at 10 µM amounted to 86.9%.

`COc1cc(N2CCN(C)CC2)ccc1Nc1ncc(Cl)c(NC[C@H]2CCCO2)n1` [Example 26, (R)-5-Chloro-N^2-[2-methoxy-4-(4-methylpiperazin-1-yl)phenyl]-N^4-[(tetrahydrofuran-2-yl)methyl]pyrimidine-2,4-diamine]: the IC50 in assay [4] was determined as 39 nM; in assay [5], 1080 nM; in assay [6], 16.8 µM; in assay [7] it was 34 nM.

With `COc1cc(Nc2c(C#N)cnc3cc(OCCCN4CCN(C)CC4)c(OC)cc23)c(Cl)cc1Cl` [bosutinib], in assay [8], the “cell migration and invasion” value is “inhibit cell migration and invasion”; the viability result is “not viability”.

As for `CNC(=O)c1ccc(N2C(=S)N(c3ccc(C#N)c(C(F)(F)F)c3)C(=O)C2(C)C)cc1F` [enzalutamide], the “H4 Y88-phosphorylation” value in assay [1] is “remained unaffected”.

The values above are taken from patent US10336734B2, “Inhibitors of ACK1/TNK2 tyrosine kinase” (H. LEE MOFFITT CANCER CENTER AND RESEARCH INSTITUTE, INC., priority 2015, dated 2019).
